# Test results from patent US9265766B2, “Methods for altering mRNA splicing and treating familial dysautonomia by administering benzyladenine” (The General Hospital Corporation, priority 2003, dated 2016).
# Entries after “also recorded” stand apart in the source; their conditions may differ. Where two headings read alike, the source gives them in different places.
# Legend:
# [1] = system: IKBKAP splicing (WT:MU IKBKAP mRNA); test: WT:MU IKBKAP mRNA ratio by RT-PCR (IDV) in FD lymphoblast cell lines; drug screen; format: cell-based, human; details: for correct IKBKAP splicing / production of wild-type IKBKAP transcript in FD cells: 10 μM compound in DMSO, 72 hours, FD lymphoblast cell line
# Description: Drug Screen. The panel of 1040 independent compounds used was specifically designed for the NINDS sponsored Neurodegeneration Drug Screening Consortium (MicroSource Discovery Systems). A single FD lymphoblast cell line was cultured in 24 well format and treated with 10 μM compound dissolved in DMSO for 72 hours. RNA was extracted using Tri-Reagent™ (Molecular Research Center) and reverse transcription and IKBKAP PCR was performed as previously described^4.
# An assay that provides stable and consistent measurement of the ratio of WT:MU FD IKBKAP mRNA splice products in lymphoblast cell lines was developed^4. This assay was employed as part of the Neurodegeneration Drug Screening Consortium′ to identify compounds that increase the relative production of WT mRNA. A single, standard FD lymphoblast cell line was assayed after 72 hours in the presence of 10 μM test drug, using compounds dissolved in DMSO.
# [2] = system: IKBKAP mRNA (WT, MU, total); test: Real-time quantitative PCR of IKBKAP transcripts in FD lymphoblast cells; format: cell-based, human; details: doses higher than 50 μM (data not shown)
# [3] = system: IKAP protein; test: Western blot of IKAP protein in FD lymphoblast cell lines; format: cell-based, human; details: increasing concentrations of kinetin, 72 hours, FD lymphoblast cells
# Source text: Western Blot Analysis. […] Extracted protein was run on a 6% polyacrylamide gel. The samples were transferred to nitrocellulose and stained with Ponceau-S to visualize protein loading. IKAP was detected using a monoclonal antibody raised against amino acids 796-1008 of IKAP (BD Bioscience) that detects the 150 kD full-length IKAP protein. The same blot was probed with an antibody to insulin-degrading enzyme (IDE) as a protein loading control. Bands were quantitated using an Alpha 2000™ Image Analyzer.
# [4] = system: FD lymphoblast cells; test: Cellular toxicity in FD lymphoblast cells; format: cell-based, human; details: 400 μM
# Description: By contrast, total IKBKAP mRNA was relatively unaffected, with a slight increase (˜1.5 fold) being detected only at doses higher than 50 μM (data not shown).
# [5] = system: FD (MU) IKBKAP minigene exon 20; test: IKBKAP minigene splicing assay, FD (MU) construct in HEK293 cells; format: cell-based, human; details: RT-PCR with T7 and BGH-R
# Description: (§1) In Vivo IKBKAP Minigene Splicing Assay. IKBKAP genomic DNA was amplified from an unaffected and an FD individual using primers in exon 19 and 21: EX19F-5′-[…] (SEQ ID NO:6) and EX21R-5′-[…] (SEQ ID NO:7). The amplified products were cloned into pcDNA3.1/V5-His Topo (Invitrogen) and sequenced for verification. […] Minigene constructs were transiently transfected 12 hours later using Genejuice (Novagen) as directed by the manufacturer. After 48 hours RNA was isolated using the RNAeasy kit (Qiagen) and reverse transcribed using Superscript™ II reverse transcriptase (Invitrogen) as described^4. PCR was performed using vector specific primers: T7 ([…]) (SEQ ID NO:8) and BGHR ([…]) (SEQ ID NO:9), which amplify both WT and MU transcripts, or the MU specific primer EX19/21F ([…]) (SEQ ID NO:10) and BGH-R to specifically amplify only MU transcripts. PCR was performed as follows: 26 cycles of [94° C., 30 s; 56° C., 30 s; 72° C., 30 s] and products resolved on a 1.5% agarose gel and visualized by ethidium bromide staining.
# (§2) These constructs were transfected into HEK293 cells and RNA was amplified using vector-specific primers to avoid amplification of the endogenous IKBKAP message. […] Introduction of the FD mutation into the construct increased exon 20 skipping as predicted.
# [6] = system: WT IKBKAP minigene exon 20; test: IKBKAP minigene splicing assay, WT construct in HEK293 cells; format: cell-based, human; details: for inclusion of exon 20, WT minigene construct: RT-PCR with T7 and BGH-R
# Description: as §1, §2
# [7] = system: NF1 minigene (exons 35 to 37, C>T at 6724); test: NF1 minigene splicing assay in HEK293 cells; format: cell-based, human; details: HEK293 cells transfected with NF1 minigene, with vs without kinetin
# Description: NF1 genomic DNA was amplified from an unaffected and an NF1 individual using primers at the 5′ end of exon 35 and the 3′ end of exon 37. […] The amplified products were cloned into pcDNA3.1/V5-His Topo (Invitrogen) and sequenced for verification. […] Minigene constructs were transiently transfected 12 hours later using Genejuice (Novagen) as directed by the manufacturer. After 48 hours RNA was isolated using the RNAeasy kit (Qiagen) and reverse transcribed using Superscript™ II reverse transcriptase (Invitrogen) as described^4. PCR was performed using vector specific primers: T7 ([…]) (SEQ ID NO:8) and BGHR ([…]) (SEQ ID NO:9), which amplify both WT and MU transcripts. PCR was performed as follows: 30 cycles of [94° C., 30 s; 58° C., 30 s; 72° C., 30 s] and products resolved on a 1.5% agarose gel and visualized by ethidium bromide staining.
# [8] = system: SMN2 exon 7; details: cited from earlier work
# [9] = system: human skin fibroblasts; details: cultured human skin fibroblasts; cited from earlier work
# [10] = system: rat liver and kidney tissue; details: in vivo, po; cited from earlier work
# [11] = system: MYO5A exon 31 splicing; details: reference 13; cited from earlier work
# [12] = system: IKBKAP WT:MU transcript ratio; test: IKBKAP nonsense mediated decay analysis (cycloheximide) in FD lymphoblast cell lines; format: cell-based, human; details: 50 μg/ml cycloheximide, four hours, FD cells
# Description: RT-PCR amplification and fractionation of the amplified product on a 1.5% agarose gel was performed on cell extracts. WT:MU IKBKAP transcript ratios were determined using the integrated density value (IDV) obtained for each band and are shown beneath each lane. Primer sequences and PCR conditions have been previously described^4
# Cell Culture and Treatment.
# The IVS20^+6T→C mutation in IKBKAP leads to a frameshift and a premature termination codon in exon 21, which is expected to target the mutant transcript for decay via the nonsense-mediated mRNA decay (NMD) pathway^15. […] FD cells were exposed to cycloheximide, a translation inhibitor, to inhibit NMD of the mutant transcript^16.
compound,measurement,setting,value
"c1coc(CNc2ncnc3nc[nH]c23)c1 [kinetin, 6-furfurylaminopurine]",correct IKBKAP splicing / production of wild-type IKBKAP transcript in FD cells,[1],dramatically enhanced correct splicing
same,correct IKBKAP splicing / production of wild-type IKBKAP transcript in FD cells,[1]; listed as Kinetin,significantly increases production of wild-type IKBKAP transcript
same,MU IKBKAP band by densitometry,"[1]; 100 μM kinetin, RT-PCR gel",barely discernable
same,increase in total IKBKAP mRNA,[2],~1.5 fold
same,IKAP protein production,[3],increase in production of IKAP protein
same,cellular toxicity,[4],some cellular toxicity
same,"inclusion of exon 20, FD (MU) minigene construct",[5],enhanced inclusion of exon 20
same,"inclusion of exon 20, FD (MU) minigene construct",[5]; listed as Kinetin,enhances inclusion of exon 20
same,exon 20 skipping in WT construct transcripts (MU-specific PCR),[6]; MU-specific primer EX19/21F,completely corrected; also recorded: absence of MU transcript in the WT lane
same,"inclusion of exon 20, WT minigene construct",[6],enhanced inclusion of exon 20
same,"inclusion of exon 20, WT minigene construct",[6]; listed as Kinetin,enhances inclusion of exon 20
same,splicing of NF1 minigene,[7],altered splicing
same,effect on exon 7 of SMN2,[8],no effect on skipping of exon 7
same,cellular changes associated with in vitro aging of human skin cells,[9],delay or prevent a range of cellular changes
same,maximum in vitro life span of human skin cells,[9],did not alter
same,toxicity when administered orally to rats,[10],much less toxicity as compared to indoleacetic acid
"CC[C@@]1(O)C[C@H](O[C@H]2C[C@H](N(C)C)[C@H](O[C@H]3C[C@H](O)[C@H](O[C@H]4CCC(=O)[C@H](C)O4)[C@H](C)O3)[C@H](C)O2)c2c(cc3c(c2O)C(=O)c2c(O)cccc2C3=O)[C@H]1C(=O)OC [aclarubicin, reference compound]",correct IKBKAP splicing / production of wild-type IKBKAP transcript in FD cells,[1],no effect on IKBKAP splicing
same,inclusion of alternatively spliced exons in MYO5A (literature),[11],neither of these drugs promotes inclusion
same,effect on exon 7 of SMN2,[8],can promote the inclusion of exon 7
"O=C(O)Cc1c[nH]c2ccccc12 [IAA, indoleacetic acid, reference compound]",lipid peroxidation in liver and kidney tissue,[10],resulting in lipid peroxidation synthesis
"CC(=CCNc1ncnc2nc[nH]c12)CO [zeatin, 6-(4-hydroxy-3-methylbut-2-enylamino)purine, reference compound]",effect on WT:MU IKBKAP ratio,[1],neither zeatin nor 2iP (dissolved in DMSO at 10 mM) had any effect
"CC(C)=CCNc1ncnc2nc[nH]c12 [2iP, 6-(γ,γ-dimethyallylamino)purine, reference compound]",effect on WT:MU IKBKAP ratio,"[1]; FD lymphoblast assay, tested at 1, 10, 50 and 100 μM",neither zeatin nor 2iP (dissolved in DMSO at 10 mM) had any effect
C[C@@H]1C[C@@H]([C@H](O)CC2CC(=O)NC(=O)C2)C(=O)[C@@H](C)C1 [cycloheximide],"WT:MU IKBKAP transcript ratio, cycloheximide alone",[12],decreasing the WT:MU transcript ratio
"c1ccc(CNc2ncnc3nc[nH]c23)cc1 [benzyladenine, 6-benzylaminopurine]",enhancement of inclusion of exon 20 in IKBKAP transcripts,"[1]; by 100 μM, FD lymphoblast assay",approximately 2 fold
